Source: ChEMBL document CHEMBL5390284, “Shikimate-Derived Meroterpenoids from the Ascidian-Derived Fungus Amphichorda felina SYSU-MS7908 and Their Anti-Glioma Activity” (J Nat Prod, 2023)
Values belong to the molecule of their own block, whether it stands above or below them. Active and inactive are the calls of the source. No cut-off for these calls is given here.

How the values were obtained:
[1] = test system: U-251; experiment: Antiproliferative activity against human U-251 cells assessed as inhibition of cell growth at 100 uM incubated for 48 hrs by MTT assay; assay type: functional
[2] = test system: U-87 MG; experiment: Antiproliferative activity against human U-87 MG cells assessed as inhibition of cell growth at 100 uM incubated for 48 hrs by MTT assay; assay type: functional
[3] = test system: T98G; experiment: Antiproliferative activity against human T98G cells assessed as inhibition of cell growth at 100 uM incubated for 48 hrs by MTT assay; assay type: functional, cell-based
[4] = test system: U-251; experiment: Antiproliferative activity against human U-251 cells assessed as inhibition of cell growth incubated for 48 hrs by MTT assay; assay type: functional, cell-based; conditions: U-251, 48 h
[5] = test system: U-87 MG; experiment: Antiproliferative activity against human U-87 MG cells assessed as inhibition of cell growth incubated for 48 hrs by MTT assay; assay type: functional, cell-based, U-87MG ATCC
[6] = test system: U-251; experiment: Induction of apoptosis in human U-251 cells assessed as total apoptotic cells at 450 uM incubated for 48 hrs by Annexin V-FITC/PI staining based flow cytometry analysis (reference value: 2.8 +/- 0.3%); assay type: functional
[7] = test system: U-87 MG; experiment: Induction of apoptosis in human U-87 MG cells assessed as late apoptotic cells at 450 uM incubated for 48 hrs by Annexin V-FITC/PI staining based flow cytometry analysis (reference value: 11 +/- 1%); assay type: functional, U-87MG ATCC
[8] = test system: U-87 MG; experiment: Induction of apoptosis in human U-87 MG cells assessed as total apoptotic cells at 450 uM incubated for 48 hrs by Annexin V-FITC/PI staining based flow cytometry analysis (reference value: 16 +/- 1%); assay type: functional, U-87MG ATCC
[9] = test system: U-251; experiment: Induction of apoptosis in human U-251 cells assessed as late apoptotic cells at 450 uM incubated for 48 hrs by Annexin V-FITC/PI staining based flow cytometry analysis (reference value: 1.3 +/- 0.6%); assay type: functional
[10] = test system: T98G; experiment: Induction of apoptosis in human T98G cells assessed as total apoptotic cells at 450 uM incubated for 48 hrs by Annexin V-FITC/PI staining based flow cytometry analysis (reference value: 6.4 +/- 0.8 %); assay type: functional
[11] = test system: T98G; experiment: Antiproliferative activity against human T98G cells assessed as inhibition of cell growth incubated for 48 hrs by MTT assay; assay type: functional, cell-based
[12] = test system: T98G; experiment: Induction of apoptosis in human T98G cells assessed as early apoptotic cells at 450 uM incubated for 48 hrs by Annexin V-FITC/PI staining based flow cytometry analysis (reference value: 2.7 +/- 0.5 %); assay type: functional
[13] = test system: T98G; experiment: Induction of apoptosis in human T98G cells assessed as late apoptotic cells at 450 uM incubated for 48 hrs by Annexin V-FITC/PI staining based flow cytometry analysis (reference value: 3.7 +/- 0.3 %); assay type: functional
[14] = test system: U-251; experiment: Induction of apoptosis in human U-251 cells assessed as early apoptotic cells at 450 uM incubated for 48 hrs by Annexin V-FITC/PI staining based flow cytometry analysis (reference value: 1.5 +/- 0.4 %); assay type: functional
[15] = test system: U-87 MG; experiment: Induction of apoptosis in human U-87 MG cells assessed as early apoptotic cells at 450 uM incubated for 48 hrs by Annexin V-FITC/PI staining based flow cytometry analysis (reference value: 1.1 +/- 0.6 %); assay type: functional, U-87MG ATCC

SMILES: CO[C@@H]1C2=C(OC(C)(C)CC2=O)[C@@H]2O[C@@]23C[C@@H](OC(C)=O)C(C)(C)O[C@@H]13
Activity [1]: inactive
Activity ([2]; U-87MG ATCC): inactive
Activity [3]: inactive

IC50 [4]: 189 µM
IC50 [5]: 203 µM
SMILES: Cn1nnc2c(C(N)=O)ncn2c1=O [TEMOZOLOMIDE]
Activity [6]: 8.3%
Activity [7]: 11%
Activity [8]: 15%
Activity [9]: 4.6%
Activity [10]: 18%
IC50 [11]: 151 µM
Activity [12]: 7.5%
Activity [13]: 9.9%
Activity [14]: 3.7%
Activity [15]: 4.2%

SMILES: C=C(C)C#C[C@]12O[C@H]1[C@@H]1OC(C)(C)[C@H](OC(C)=O)C[C@@]13O[C@H]3[C@@H]2OC(C)=O
Activity [1]: >50%
Activity [2]: >50%

SMILES: CC1(C)CC(=O)C2=C(O1)C(=O)[C@@]1(O)C[C@@H](O)C(C)(C)O[C@H]1[C@@H]2O
Activity [1]: inactive
Activity ([2]; U-87MG ATCC): inactive
Activity [3]: inactive
